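Compound exposure: 48 hours, 5 concentrations, 96-well plates. GI50 = concentration required for 50% inhibition of growth.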 Activity calls are given as the source filed them. Cut-off read from the data, not from the text of the source: active = GI50 up to about 1.1 µM and inactive = higher.
What was measured:
Test in all cases: NCI anticancer screen, dose series, 48 h
MOLT-4 = test system: MOLT-4
HOP-62 = test system: HOP-62
NCI-H522 = test system: NCI-H522
OVCAR-5 = test system: OVCAR-5
A549 = test system: A549
TK-10 = test system: TK-10
HCT-15 = test system: HCT-15
HCC 2998 = test system: HCC 2998
LOX IMVI = test system: LOX IMVI
SF-539 = test system: SF-539
COLO 205 = test system: COLO 205
HCT-116 = test system: HCT-116
OVCAR-3 = test system: OVCAR-3
Malme-3M = test system: Malme-3M
SK-MEL-5 = test system: SK-MEL-5
IGROV-1 = test system: IGROV-1

Measured: GI50

O=C(Nc1cc(Cl)c(Cl)cc1Cl)C(=O)C(C(=O)c1ccc(Cl)c(Cl)c1)C1OC(=O)c2ccccc21 (stereo unspecified)
19.6 µM: HCT-15
inactive: HOP-62 12.6 µM | NCI-H522 10.9 µM | OVCAR-5 11.1 µM | A549 28.7 µM | TK-10 26.1 µM | HCC 2998 18.8 µM | LOX IMVI 16.4 µM | SF-539 2.67 µM | COLO 205 15 µM | HCT-116 15.1 µM | OVCAR-3 13.7 µM | Malme-3M > 10 µM
active: MOLT-4 0.187 µM

CC(C)(C)C1=Nc2c(Br)cc(C(C)(C)C)cc2C(C(F)(F)F)(C(F)(F)F)O1
inactive: MOLT-4 45.8 µM | HOP-62 > 100 µM | NCI-H522 31.1 µM | SK-MEL-5 83.6 µM | IGROV-1 65.5 µM | OVCAR-5 > 100 µM | A549 43.4 µM | TK-10 > 100 µM | HCC 2998 29.9 µM | LOX IMVI 16.2 µM | SF-539 37.8 µM | COLO 205 > 100 µM | HCT-116 41.2 µM | OVCAR-3 17 µM | Malme-3M > 100 µM
43.7 µM: HCT-15

O=C1C(=Cc2c(O)cc(O)cc2O)C(=O)c2ccccc21
inactive: MOLT-4 39.8 µM | HOP-62 > 100 µM | NCI-H522 > 46 µM | SK-MEL-5 > 100 µM | IGROV-1 > 43.5 µM | OVCAR-5 > 43 µM | A549 > 100 µM | TK-10 > 46.6 µM | HCC 2998 > 41.9 µM | LOX IMVI 15.4 µM | SF-539 > 42.7 µM | COLO 205 > 41.5 µM | HCT-116 > 39.3 µM | OVCAR-3 > 40.6 µM | Malme-3M > 44.6 µM
> 46.8 µM: HCT-15

N#C/C(=C1\OC(=N)C(c2ccccc2)C1=O)c1ccccc1 (stereo unspecified)
22.1 µM: HCT-15
inactive: MOLT-4 18.7 µM | HOP-62 > 100 µM | NCI-H522 8.81 µM | SK-MEL-5 26.9 µM | IGROV-1 30.5 µM | OVCAR-5 > 100 µM | A549 > 100 µM | TK-10 29.7 µM | HCC 2998 90.2 µM | LOX IMVI 33.6 µM | SF-539 > 31.6 µM | COLO 205 22.6 µM | HCT-116 17.6 µM | OVCAR-3 28.1 µM | Malme-3M 18.9 µM

COc1ccc(NC(=O)CC/C(CC(=O)C(C)(C)C)=N\NC(=O)C(N)=O)cc1
> 100 µM: HCT-15
inactive: MOLT-4 > 100 µM | HOP-62 > 100 µM | IGROV-1 > 100 µM | OVCAR-5 > 100 µM | A549 > 100 µM | HCC 2998 > 100 µM | LOX IMVI > 100 µM | SF-539 > 100 µM | COLO 205 > 100 µM | HCT-116 > 100 µM | OVCAR-3 > 100 µM | Malme-3M > 100 µM

N#C/C(=C/c1ccc2c(c1)OCO2)C(=O)c1ccccc1
inactive: MOLT-4 > 100 µM | HOP-62 > 100 µM | NCI-H522 > 100 µM | SK-MEL-5 > 100 µM | IGROV-1 > 100 µM | OVCAR-5 > 100 µM | A549 > 100 µM | TK-10 > 100 µM | HCC 2998 > 100 µM | SF-539 > 100 µM | COLO 205 > 100 µM | HCT-116 > 100 µM | OVCAR-3 > 100 µM | Malme-3M > 100 µM
> 100 µM: HCT-15

COC(=O)C1CCCC2(C1)OCCO2 (stereo unspecified)
inactive: MOLT-4 > 100 µM | HOP-62 > 100 µM | NCI-H522 > 100 µM | SK-MEL-5 > 100 µM | IGROV-1 > 100 µM | OVCAR-5 > 100 µM | A549 > 100 µM | TK-10 > 100 µM | HCC 2998 > 100 µM | LOX IMVI > 100 µM | SF-539 > 100 µM | COLO 205 > 100 µM | HCT-116 > 100 µM | OVCAR-3 > 100 µM | Malme-3M > 100 µM
> 100 µM: HCT-15

Cc1ccc(S(=O)(=O)N/N=C(/CC(=O)c2c(C)[n+]([O-])c3ccccc3[n+]2[O-])C(=O)Nc2ccc(C)c(C)c2)cc1
inactive: HOP-62 > 100 µM | NCI-H522 70.1 µM | IGROV-1 62.8 µM | OVCAR-5 88.7 µM | A549 > 100 µM | HCC 2998 90.4 µM | SF-539 > 100 µM | COLO 205 34.7 µM | HCT-116 38.2 µM | OVCAR-3 16.5 µM | Malme-3M > 100 µM
48.6 µM: HCT-15

Nc1nc(Cl)cc(NCC(O)CO)n1 (stereo unspecified)
> 100 µM: HCT-15
inactive: MOLT-4 > 100 µM | HOP-62 > 100 µM | SK-MEL-5 > 100 µM | IGROV-1 > 100 µM | OVCAR-5 > 100 µM | A549 > 100 µM | TK-10 > 100 µM | HCC 2998 > 100 µM | LOX IMVI > 100 µM | SF-539 > 100 µM | COLO 205 > 100 µM | HCT-116 > 100 µM | OVCAR-3 > 100 µM | Malme-3M > 100 µM

Cc1ccccc1/C=C/C(=O)c1ccccc1
inactive: MOLT-4 18.7 µM | HOP-62 16.7 µM | NCI-H522 21.1 µM | SK-MEL-5 > 10 µM | IGROV-1 25.2 µM | OVCAR-5 16.3 µM | A549 22.5 µM | HCC 2998 18.4 µM | SF-539 15.1 µM | COLO 205 21.4 µM | HCT-116 15.4 µM | OVCAR-3 17.3 µM | Malme-3M 18.1 µM
> 10 µM: HCT-15

O=C(CC1C(=O)Nc2ccccc2S1(=O)=O)Nc1ccc(Cl)cc1 (stereo unspecified)
inactive: MOLT-4 13.5 µM | NCI-H522 16.3 µM | SK-MEL-5 21.2 µM | IGROV-1 17.2 µM | OVCAR-5 78.9 µM | A549 31.6 µM | TK-10 20 µM | HCC 2998 18.4 µM | LOX IMVI 16.9 µM | SF-539 13.8 µM | HCT-116 27.7 µM | OVCAR-3 15.2 µM | Malme-3M 22.7 µM
31.6 µM: HCT-15

CCOC(=O)C1([Se]c2ccccc2)CCCC1=O (stereo unspecified)
inactive: MOLT-4 22.3 µM | HOP-62 96.8 µM | NCI-H522 3.6 µM | SK-MEL-5 20.1 µM | IGROV-1 18.6 µM | OVCAR-5 40.8 µM | A549 32.7 µM | TK-10 77.6 µM | HCC 2998 25.9 µM | LOX IMVI 13.1 µM | SF-539 19.6 µM | COLO 205 16 µM | HCT-116 15.5 µM | OVCAR-3 26.6 µM | Malme-3M 32.6 µM
13.2 µM: HCT-15

COc1ccccc1NC(=O)C1=C(C)NC(C)=C(C(=O)Nc2ccccc2OC)C1C1=CC=COC1
4.59 µM: HCT-15
inactive: MOLT-4 13.3 µM | HOP-62 27.5 µM | SK-MEL-5 5.06 µM | IGROV-1 10.8 µM | OVCAR-5 36.4 µM | A549 18.5 µM | TK-10 16.5 µM | HCC 2998 12.3 µM | SF-539 12.2 µM | COLO 205 57 µM | HCT-116 4.53 µM | OVCAR-3 3.11 µM | Malme-3M 5.68 µM

COc1ccc(-c2cc(=O)c3cc(C)c(C)c(C(=O)O)c3o2)cc1
inactive: MOLT-4 > 100 µM | HOP-62 > 100 µM | IGROV-1 > 100 µM | A549 > 100 µM | HCC 2998 > 100 µM | SF-539 > 100 µM | COLO 205 > 100 µM | HCT-116 > 100 µM | OVCAR-3 > 100 µM
> 100 µM: HCT-15

CC1(c2cccc(C3CC4(CCC3=O)OCCCCO4)c2)OCCO1 (stereo unspecified)
> 100 µM: HCT-15
inactive: MOLT-4 > 100 µM | HOP-62 > 100 µM | NCI-H522 > 100 µM | SK-MEL-5 > 100 µM | IGROV-1 > 100 µM | OVCAR-5 > 100 µM | A549 > 100 µM | TK-10 > 100 µM | HCC 2998 > 100 µM | LOX IMVI > 100 µM | SF-539 > 100 µM | COLO 205 > 100 µM | HCT-116 > 100 µM | OVCAR-3 > 100 µM | Malme-3M > 100 µM

CCc1c(OC(C)=O)c2c(NC3OCC(OC(C)=O)C(OC(C)=O)C3OC(C)=O)nc(SC)nc2oc1=O (stereo unspecified)
> 100 µM: HCT-15
inactive: MOLT-4 > 100 µM | HOP-62 > 100 µM | SK-MEL-5 > 100 µM | IGROV-1 > 100 µM | OVCAR-5 > 100 µM | A549 > 100 µM | TK-10 > 100 µM | HCC 2998 > 100 µM | LOX IMVI > 100 µM | SF-539 > 100 µM | COLO 205 > 100 µM | HCT-116 > 100 µM | OVCAR-3 > 100 µM | Malme-3M > 100 µM

COc1ccc(OC)c2cc(C3(C)SCCCS3)ccc12
88.1 µM: HCT-15
inactive: MOLT-4 89.7 µM | HOP-62 > 100 µM | SK-MEL-5 > 100 µM | IGROV-1 > 100 µM | OVCAR-5 > 100 µM | A549 > 100 µM | TK-10 > 100 µM | HCC 2998 > 100 µM | LOX IMVI > 100 µM | SF-539 > 100 µM | COLO 205 > 100 µM | HCT-116 83.4 µM | OVCAR-3 > 100 µM | Malme-3M > 100 µM

C=C1C(=O)C23CC1CCC2C12CO[C@@H]4OCC(C)(CC[C@@H]1OC3=O)C42 (stereo partly specified)
inactive: MOLT-4 3.01 µM | HOP-62 27 µM | SK-MEL-5 14.8 µM | IGROV-1 6.95 µM | OVCAR-5 15.8 µM | A549 10.9 µM | TK-10 5.75 µM | HCC 2998 16.4 µM | SF-539 7.14 µM | COLO 205 2.1 µM | HCT-116 2.08 µM | OVCAR-3 6.49 µM | Malme-3M 2.3 µM
active: NCI-H522 1.01 µM
2.9 µM: HCT-15

COc1ncn(C2C=C(CO)C(O)C2O)c(=O)n1 (stereo unspecified)
> 100 µM: HCT-15
inactive: MOLT-4 > 100 µM | HOP-62 > 100 µM | NCI-H522 > 100 µM | SK-MEL-5 > 100 µM | IGROV-1 > 100 µM | A549 > 100 µM | TK-10 > 100 µM | HCC 2998 > 100 µM | SF-539 > 100 µM | COLO 205 > 100 µM | HCT-116 > 100 µM | OVCAR-3 > 100 µM | Malme-3M > 100 µM

Source: ChEMBL document CHEMBL1201862, “PubChem BioAssay data set” (2004)
